Results published in patent US11878966B2, “Substituted 4-benzyl and 4-benzoyl piperidine derivates” (89BIO LTD, priority 2015, dated 2024).

Molecular target: T1, recombinant human baculovirus-expressed GST-tagged FASN (Homo sapiens, UniProt P49327)
T1 construct: GST; host or cells: baculovirus expression system (insect cells implied)
Test: FASN enzyme activity assay: fluorescence-based detection of CoA with CPM
Assay type: biochemical
Details: 5 nM FASN, 150 μM NADPH, 10 μM acetyl-CoA, 25 μM malonyl-CoA, 90 minutes incubation
Text: FASN Enzyme activity may be determined by detecting coenzyme A (CoA), a product of FASN-catalyzed synthesis of palmitate from acetyl-CoA and malonyl-CoA with NADPH as a cofactor. The assay is fluorescence-based and measures the interaction of free CoA with 7-diethylamino-3-(4′-malemimidylphenyl)-4-methylcoumarin (CPM; Life Technologies, CA) as described in Chung et al (2008). The coumarin derivative CPM contains a thiol-reactive maleimide that becomes fluorescent upon interaction with the sulfhydryl group of CoA.
For the example compounds described herein, the reaction was performed in 384-well low volume non-binding platews (Corning, NY) using recombinant human baculovirus-expressed GST-tagged FASN. The 20-μL assay mixture contained 50 mM HEPES (pH 7.5), 5 nM FASN, 150 μM NADPH (Sigma, St. Louis, MO), 10 μM acetyl-CoA (Sigma), 25 μM malonyl-CoA (Sigma) and test compound [diluted in dimethyl sulfoxide (DMSO); 0.5% DMSO final in assay after 100 nL addition]. See, Chung et al.; “A fluorescence-based thiol quantification assay for ultra-high-throughput screening for inhibitors of coenzyme A production,” Assay Drug Dev Tech 2008; 6:361-374.
The reaction was initiated by adding malonyl-CoA, followed by incubation for 90 minutes at […]. A stock solution of the CPM reagent was prepared in DMSO al 66 μM and stored at […]. To detect CoA produced in the FASN reaction, the CPM stock was diluted to 50 μM in 70% ethanol and added at 4 μL/well to the assay place. The reaction mixture was then incubated for 30 minutes. Fluorescence was measured using the EnVision™ 2102 multi-label plate reader (PerkinElmer, Waltham, MA) utilizing a general dual mirror, a 390 nm excitation filter and a 530 nm emission filter. Data analysis was performed using ActivityBase (IDBS, Guilford, UK). IC50 values were calculated by plotting the percent inhibition versus log 10 of the concentration of the compound, and fitting to the nonlinear regression sigmoidal dose-response (variable slope) equation in XLFit (IDBS).

T1 sequence (P49327 whole entry): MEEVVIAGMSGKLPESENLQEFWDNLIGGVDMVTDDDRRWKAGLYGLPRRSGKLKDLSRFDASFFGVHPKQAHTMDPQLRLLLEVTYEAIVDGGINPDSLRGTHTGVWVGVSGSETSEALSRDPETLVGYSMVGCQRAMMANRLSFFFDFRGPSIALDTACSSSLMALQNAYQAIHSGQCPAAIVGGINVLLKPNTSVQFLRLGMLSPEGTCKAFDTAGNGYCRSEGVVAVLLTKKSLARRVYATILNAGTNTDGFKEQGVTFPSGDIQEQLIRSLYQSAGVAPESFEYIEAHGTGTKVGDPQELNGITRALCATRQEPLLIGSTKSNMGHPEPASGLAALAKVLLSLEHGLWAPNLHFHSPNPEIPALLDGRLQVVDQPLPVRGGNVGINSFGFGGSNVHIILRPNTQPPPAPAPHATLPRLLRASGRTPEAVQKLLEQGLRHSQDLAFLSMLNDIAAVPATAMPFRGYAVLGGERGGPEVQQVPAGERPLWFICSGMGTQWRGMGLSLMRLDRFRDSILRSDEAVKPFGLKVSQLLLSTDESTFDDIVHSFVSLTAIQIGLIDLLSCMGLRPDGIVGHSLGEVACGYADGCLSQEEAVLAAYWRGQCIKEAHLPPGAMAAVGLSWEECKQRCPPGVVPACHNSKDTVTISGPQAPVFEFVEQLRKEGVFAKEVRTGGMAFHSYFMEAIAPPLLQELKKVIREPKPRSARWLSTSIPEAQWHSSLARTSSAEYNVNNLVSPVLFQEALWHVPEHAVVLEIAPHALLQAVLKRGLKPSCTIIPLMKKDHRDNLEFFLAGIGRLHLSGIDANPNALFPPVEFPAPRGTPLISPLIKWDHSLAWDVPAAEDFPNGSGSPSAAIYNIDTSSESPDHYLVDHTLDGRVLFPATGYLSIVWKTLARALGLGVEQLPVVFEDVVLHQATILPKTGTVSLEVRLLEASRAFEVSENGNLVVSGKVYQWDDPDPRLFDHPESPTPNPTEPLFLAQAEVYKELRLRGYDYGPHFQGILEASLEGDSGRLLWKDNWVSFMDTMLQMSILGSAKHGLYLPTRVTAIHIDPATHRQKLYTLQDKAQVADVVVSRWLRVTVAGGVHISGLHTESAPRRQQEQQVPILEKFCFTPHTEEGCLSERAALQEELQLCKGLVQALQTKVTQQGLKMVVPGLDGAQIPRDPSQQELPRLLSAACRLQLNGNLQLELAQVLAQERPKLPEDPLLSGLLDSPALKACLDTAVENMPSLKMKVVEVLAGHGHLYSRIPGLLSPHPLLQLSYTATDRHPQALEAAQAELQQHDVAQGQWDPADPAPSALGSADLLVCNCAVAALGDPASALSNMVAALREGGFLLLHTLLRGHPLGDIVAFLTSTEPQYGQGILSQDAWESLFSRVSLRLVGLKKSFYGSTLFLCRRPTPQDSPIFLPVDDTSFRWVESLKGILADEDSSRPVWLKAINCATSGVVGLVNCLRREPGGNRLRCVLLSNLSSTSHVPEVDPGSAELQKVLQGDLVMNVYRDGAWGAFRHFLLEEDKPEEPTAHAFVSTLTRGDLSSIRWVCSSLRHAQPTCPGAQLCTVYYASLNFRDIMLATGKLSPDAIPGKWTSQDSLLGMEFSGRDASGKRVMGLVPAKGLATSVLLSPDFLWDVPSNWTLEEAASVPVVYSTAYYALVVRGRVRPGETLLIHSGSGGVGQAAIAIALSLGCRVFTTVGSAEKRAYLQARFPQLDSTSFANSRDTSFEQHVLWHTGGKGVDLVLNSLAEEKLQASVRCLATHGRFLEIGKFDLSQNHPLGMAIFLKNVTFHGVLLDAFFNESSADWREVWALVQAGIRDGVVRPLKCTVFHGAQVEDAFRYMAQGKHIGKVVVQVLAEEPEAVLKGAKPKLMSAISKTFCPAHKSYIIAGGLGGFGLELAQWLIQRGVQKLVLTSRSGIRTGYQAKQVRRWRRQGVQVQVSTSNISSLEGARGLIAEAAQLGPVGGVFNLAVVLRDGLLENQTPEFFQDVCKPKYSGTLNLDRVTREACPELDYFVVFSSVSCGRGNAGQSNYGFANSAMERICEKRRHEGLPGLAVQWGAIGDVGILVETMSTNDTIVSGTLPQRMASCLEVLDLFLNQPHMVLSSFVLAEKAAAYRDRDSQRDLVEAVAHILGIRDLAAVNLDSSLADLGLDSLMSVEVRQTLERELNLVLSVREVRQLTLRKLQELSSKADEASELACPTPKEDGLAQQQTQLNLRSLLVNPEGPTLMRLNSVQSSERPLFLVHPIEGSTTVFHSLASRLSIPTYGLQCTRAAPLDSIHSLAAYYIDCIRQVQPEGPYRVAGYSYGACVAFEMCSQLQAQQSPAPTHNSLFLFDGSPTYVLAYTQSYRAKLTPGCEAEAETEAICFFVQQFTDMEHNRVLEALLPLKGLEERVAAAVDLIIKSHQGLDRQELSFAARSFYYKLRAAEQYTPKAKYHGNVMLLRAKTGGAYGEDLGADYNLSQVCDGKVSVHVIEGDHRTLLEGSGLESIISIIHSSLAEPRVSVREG

Row | IC50 | SMILES
1 | 0.001 to 0.099 µM | O=C(C1CC1)N1CCC(Cc2ccc(-c3cnc4ccccc4c3Cl)cc2)CC1 [Example 20, {4-[4-(4-Chloroquinolin-3-yl)-benzyl]-piperidin-1-yl}-cyclopropylmethanone]
2 | 1 to 10 µM | O=C(C1CC(F)(F)C1)N1CCC(Cc2ccc(-c3cnc4ccccc4c3Cl)cc2)CC1 [Example 21, {4-[4-(4-Chloroquinolin-3-yl)-benzyl]-piperidin-1-yl}-(3,3-difluorocyclobutyl)-methanone]
3 | 0.001 to 0.099 µM | O=C([C@H]1CCCO1)N1CCC(Cc2ccc(-c3cnc4ccccc4c3Cl)cc2)CC1 [Example 22, {4-[4-(4-Chloroquinolin-3-yl)-benzyl]-piperidin-1-yl}-(R)-tetrahydrofuran-2-yl-methanone]
4 | 0.001 to 0.099 µM | CCC(=O)N1CCC(Cc2ccc(-c3ccc4cccnc4c3C)cc2)CC1 [Example 23, 1-{4-[4-(8-Methylquinolin-7-yl)-benzyl]-piperidin-1-yl}-propan-1-one]
5 | 0.001 to 0.099 µM | Cc1c(-c2ccc(CC3CCN(C(=O)C4CC4)CC3)cc2)ccc2cccnc12 [Example 24, Cyclopropyl-{4-[4-(8-methylquinolin-7-yl)-benzyl]-piperidin-1-yl}-methanone]
6 | 0.001 to 0.099 µM | Cc1c(-c2ccc(CC3CCN(C(=O)[C@H]4CCCO4)CC3)cc2)ccc2cccnc12 [Example 25, {4-[4-(8-Methylquinolin-7-yl)-benzyl]-piperidin-1-yl}-(R)-tetrahydrofuran-2-yl-methanone]
7 | 1 to 10 µM | CCC(=O)N1CCC(Cc2ccc(-c3cc4ccccc4cn3)cc2)CC1 [Example 26, 1-[4-(4-Isoquinolin-3-yl-benzyl)-piperidin-1-yl]-propan-1-one]
8 | 1 to 10 µM | O=C(C1CC1)N1CCC(Cc2ccc(-c3cc4ccccc4cn3)cc2)CC1 [Example 27, Cyclopropyl-[4-(4-isoquinolin-3-yl-benzyl)-piperidin-1-yl]-methanone]
9 | 0.001 to 0.099 µM | O=C([C@H]1CCCO1)N1CCC(Cc2ccc(-c3cc4ccccc4cn3)cc2)CC1 [Example 28, [4-(4-Isoquinolin-3-yl-benzyl)-piperidin-1-yl]-(R)-tetrahydrofuran-2-yl-methanone]
10 | 0.001 to 0.099 µM | CCC(=O)N1CCC(Cc2ccc(-c3ccc4cccnc4c3Cl)cc2)CC1 [Example 29, 1-{4-[4-(8-Chloroquinolin-7-yl)-benzyl]-piperidin-1-yl}-propan-1-one]
11 | 0.001 to 0.099 µM | O=C(C1CC1)N1CCC(Cc2ccc(-c3ccc4cccnc4c3Cl)cc2)CC1 [Example 30, {4-[4-(8-Chloroquinolin-7-yl)-benzyl]-piperidin-1-yl}-cyclopropylmethanone]
12 | 0.001 to 0.099 µM | O=C([C@H]1CCCO1)N1CCC(Cc2ccc(-c3ccc4cccnc4c3Cl)cc2)CC1 [Example 31, {4-[4-(8-Chloroquinolin-7-yl)-benzyl]-piperidin-1-yl}-(R)-tetrahydrofuran-2-yl-methanone]
13 | 0.001 to 0.099 µM | CCC(=O)N1CCC(Cc2ccc(-c3ccc4cccnc4c3OC)cc2)CC1 [Example 32, 1-{4-[4-(8-Methoxyquinolin-7-yl)-benzyl]-piperidin-1-yl}-propan-1-one]
14 | 0.001 to 0.099 µM | COc1c(-c2ccc(CC3CCN(C(=O)C4CC4)CC3)cc2)ccc2cccnc12 [Example 33, Cyclopropyl-{4-[4-(8-methoxyquinolin-7-yl)-benzyl]-piperidin-1-yl}-methanone]
15 | 0.001 to 0.099 µM | COc1c(-c2ccc(CC3CCN(C(=O)[C@H]4CCCO4)CC3)cc2)ccc2cccnc12 [Example 34, {4-[4-(8-Methoxyquinolin-7-yl)-benzyl]-piperidin-1-yl}-(R)-tetrahydrofuran-2-yl-methanone]
16 | 0.001 to 0.099 µM | CCC(=O)N1CCC(Cc2ccc(-c3ccc4c(C)nccc4c3)cc2)CC1 [Example 35, 1-{4-[4-(1-methylisoquinolin-6-yl)-benzyl]-piperidin-1-yl}-propan-1-one]
17 | 0.001 to 0.099 µM | Cc1nccc2cc(-c3ccc(CC4CCN(C(=O)C5CC5)CC4)cc3)ccc12 [Example 36, Cyclopropyl-{4-[4-(1-methyl-isoquinolin-6-yl)-benzyl]-piperidin-1-yl}-methanone]
18 | 0.001 to 0.099 µM | Cc1nccc2cc(-c3ccc(CC4CCN(C(=O)[C@H]5CCCO5)CC4)cc3)ccc12 [Example 37, {4-[4-(1-methylisoquinolin-6-yl)-benzyl]-piperidin-1-yl}-(R)-tetrahydro-furan-2-yl-methanone]
19 | 0.001 to 0.099 µM | CCC(=O)N1CCC(C(C)c2ccc(-c3cnc4ccccc4c3)cc2)CC1 (stereo not shown) [Example 39, 1-(4-(1-(4-(quinolin-3-yl)phenyl)ethyl)piperidin-1-yl)propan-1-one]

Row | IC50 | SMILES
20 | 0.001 to 0.099 µM | CCC(=O)N1CCC(C(C)c2ccc(-c3ccc4cccnc4c3)cc2)CC1 (stereo not shown) [Example 42, 1-{4-[1-(4-Quinolin-7-yl-phenyl)-ethyl]-piperidin-1-yl}-propan-1-one]
21 | 1 to 10 µM | CCC(=O)N1CCC(C(N)c2ccc(-c3cnc4ccccc4c3)cc2)CC1 (stereo not shown) [Example 43, 1-{4-[amino-(4-quinolin-3-yl-phenyl)-methyl]-piperidin-1-yl}-propan-1-one]
22 | 0.1 to 0.999 µM | O=C(C1CC1)N1CCC(C2(c3ccc(-c4cnc5ccccc5c4)cc3)CC2)CC1 [Example 44, Cyclopropyl-{4-[1-(4-quinolin-3-yl-phenyl)-cyclopropyl]-piperidin-1-yl}-methanone]
23 | 0.1 to 0.999 µM | O=C(C1CC1)N1CCC(C2(c3ccc(-c4ccc5cccnc5c4)cc3)CC2)CC1 [Example 45, Cyclopropyl-{4-[1-(4-quinolin-7-yl-phenyl)-cyclopropyl]-piperidin-1-yl}-methanone]
24 | 0.001 to 0.099 µM | CCC(=O)N1CCC(/C(=N\OC)c2ccc(-c3cnc4ccccc4c3)cc2)CC1 [Example 46, 1-{4-[[(E:Z)-Methoxyimino]-(4-quinolin-3-yl-phenyl)-methyl]-piperidin-1-yl}-propan-1-one]
25 | 0.001 to 0.099 µM | CCC(=O)N1CCC(C(CC)c2ccc(-c3cnc4ccccc4c3)cc2)CC1 (stereo not shown) [Example 47, 1-{4-[1-(4-Quinolin-3-yl-phenyl)-propyl]-piperidin-1-yl}-propan-1-one]
26 | 0.1 to 0.999 µM | CCC(=O)N1CCC(C(c2ccc(-c3cnc4ccccc4c3)cc2)C2CC2)CC1 (stereo not shown) [Example 48, 1-{4-[Cyclopropyl-(4-quinolin-3-yl-phenyl)-methyl]-piperidin-1-yl}-propan-1-one]
27 | 0.001 to 0.099 µM | O=C(c1ccc(-c2cnc3ccccc3c2)cc1)C1CCN(C(=O)[C@H]2CCCO2)CC1 [Example 49, [4-(4-Quinolin-3-yl-benzoyl)-piperidin-1-yl]-(R)-tetrahydrofuran-2-yl-methanone]
28 | 0.001 to 0.099 µM | CC(c1ccc(-c2ccc3cccnc3c2)cc1)C1CCN(C(=O)[C@H]2CCCO2)CC1 (stereo partly drawn) [Example 51, {4-[1-(4-Quinolin-7-yl-phenyl)-ethyl]-piperidin-1-yl}-(R)-tetrahydrofuran-2-yl-methanone]
29 | 0.001 to 0.099 µM | CC(c1ccc(-c2cnc3ccccc3c2)cc1)C1CCN(C(=O)[C@H]2CCCO2)CC1 (stereo partly drawn) [Example 52, {4-[1-(4-Quinolin-3-yl-phenyl)-ethyl]-piperidin-1-yl}-(R)-tetrahydrofuran-2-yl-methanone]
30 | 1 to 10 µM | CCC(=O)N1CCC(C(NC(C)=O)c2ccc(-c3cnc4ccccc4c3)cc2)CC1 (stereo not shown) [Example 53, N-[(1-Propionylpiperidin-4-yl)-(4-quinolin-3-yl-phenyl)-methyl]-acetamide]
31 | 0.001 to 0.099 µM | CCCC(c1ccc(-c2cnc3ccccc3c2)cc1)C1CCN(C(=O)CC)CC1 (stereo not shown) [Example 54, 1-{4-[1-(4-Quinolin-3-yl-phenyl)-butyl]-piperidin-1-yl}-propan-1-one]
32 | 1 to 10 µM | CCC(=O)N1CCC(C(NC=O)c2ccc(-c3cnc4ccccc4c3)cc2)CC1 (stereo not shown) [Example 55, N-[(1-Propionylpiperidin-4-yl)-(4-quinolin-3-yl-phenyl)-methyl]-formamide]
33 | 0.1 to 0.999 µM | CCC(=O)N1CCC(C)(C(=O)c2ccc(-c3cnc4ccccc4c3)cc2)CC1 [Example 56, 1-[4-Methyl-4-(4-quinolin-3-yl-benzoyl)-piperidin-1-yl]-propan-1-one]
34 | 1 to 10 µM | CC(c1ccc(-c2cnc3ccccc3c2)cc1)C1CCN(C(=O)OC(C)(C)C)CC1 (stereo not shown) [Example 57, 4-[1-(4-quinolin-3-yl-phenyl)-ethyl]-piperidine-1-carboxylic Acid t-Butyl Ester]
35 | 0.001 to 0.099 µM | CC(c1ccc(-c2cnc3ccccc3c2)cc1)C1CCN(C(=O)C2CC2)CC1 (stereo not shown) [Example 58, Cyclopropyl-{4-[1-(4-quinolin-3-yl-phenyl)-ethyl]-piperidin-1-yl}-methanone]
36 | 0.1 to 0.999 µM | CCC(=O)N1CCC(C)(Cc2ccc(-c3cnc4ccccc4c3)cc2)CC1 [Example 59, 1-[4-Methyl-4-(4-quinolin-3-yl-benzyl)-piperidin-1-yl]-propan-1-one]
37 | 1 to 10 µM | CC(c1ccc(-c2cnc3ccccc3c2)cc1)C1CCN(C=O)CC1 (stereo not shown) [Example 60, 4-[1-(4-Quinolin-3-yl-phenyl)-ethyl]-piperidine-1-carbaldehyde]
